In ChEMBL document CHEMBL4706690, “Identification of BR102910 as a selective fibroblast activation protein (FAP) inhibitor” (Bioorg Med Chem Lett, 2021):
Active and inactive are the calls of the source. The rule behind the calls is not given here.

How the values were obtained:
[1] = target: T1, Prolyl endopeptidase FAP (Homo sapiens, UniProt Q12884); assay: Inhibition of FAP (unknown origin) using AMC substrate by fluorometric assay
T1 sequence (Q12884 whole entry): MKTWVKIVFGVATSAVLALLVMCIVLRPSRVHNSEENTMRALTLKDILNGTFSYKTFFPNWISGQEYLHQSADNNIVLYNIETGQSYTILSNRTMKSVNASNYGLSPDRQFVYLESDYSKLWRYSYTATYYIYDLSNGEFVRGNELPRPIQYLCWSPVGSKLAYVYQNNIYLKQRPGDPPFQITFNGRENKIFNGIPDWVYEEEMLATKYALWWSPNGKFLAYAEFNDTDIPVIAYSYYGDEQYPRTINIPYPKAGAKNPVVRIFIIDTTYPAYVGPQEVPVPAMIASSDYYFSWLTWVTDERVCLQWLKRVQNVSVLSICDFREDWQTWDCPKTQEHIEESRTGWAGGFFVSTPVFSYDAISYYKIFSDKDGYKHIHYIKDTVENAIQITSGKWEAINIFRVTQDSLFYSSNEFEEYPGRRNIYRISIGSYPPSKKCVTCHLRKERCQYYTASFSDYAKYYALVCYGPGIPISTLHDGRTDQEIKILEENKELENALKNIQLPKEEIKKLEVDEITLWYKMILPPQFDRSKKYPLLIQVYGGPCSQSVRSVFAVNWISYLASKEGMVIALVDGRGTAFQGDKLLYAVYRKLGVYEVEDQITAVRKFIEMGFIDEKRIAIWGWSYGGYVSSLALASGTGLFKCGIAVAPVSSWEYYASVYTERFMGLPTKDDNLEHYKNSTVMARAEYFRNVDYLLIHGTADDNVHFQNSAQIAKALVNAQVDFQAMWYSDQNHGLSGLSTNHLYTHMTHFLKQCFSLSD

[2] = target: Dipeptidyl peptidase 4 (Homo sapiens, UniProt P27487); assay: Inhibition of DPP4 (unknown origin) using AMC substrate by fluorometric assay
Dipeptidyl peptidase 4, sequence (P27487 whole entry): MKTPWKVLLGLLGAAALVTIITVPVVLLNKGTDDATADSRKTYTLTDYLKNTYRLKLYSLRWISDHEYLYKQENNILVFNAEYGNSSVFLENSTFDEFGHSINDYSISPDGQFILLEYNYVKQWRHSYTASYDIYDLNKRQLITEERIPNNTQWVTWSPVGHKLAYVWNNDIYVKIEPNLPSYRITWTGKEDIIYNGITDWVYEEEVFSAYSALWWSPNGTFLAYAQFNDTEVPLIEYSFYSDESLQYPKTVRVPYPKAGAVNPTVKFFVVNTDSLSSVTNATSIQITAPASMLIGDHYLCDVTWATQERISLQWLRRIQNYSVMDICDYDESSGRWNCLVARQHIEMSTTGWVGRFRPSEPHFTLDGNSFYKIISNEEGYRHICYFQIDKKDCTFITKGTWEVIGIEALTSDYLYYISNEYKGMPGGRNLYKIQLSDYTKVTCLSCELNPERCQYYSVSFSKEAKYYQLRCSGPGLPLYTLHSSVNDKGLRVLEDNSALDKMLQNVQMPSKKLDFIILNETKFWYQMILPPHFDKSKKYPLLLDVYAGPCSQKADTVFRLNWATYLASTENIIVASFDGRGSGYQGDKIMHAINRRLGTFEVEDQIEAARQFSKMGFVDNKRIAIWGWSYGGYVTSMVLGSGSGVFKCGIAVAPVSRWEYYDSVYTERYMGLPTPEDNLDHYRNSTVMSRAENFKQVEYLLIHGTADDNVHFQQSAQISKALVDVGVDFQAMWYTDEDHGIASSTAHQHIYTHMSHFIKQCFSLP

[3] = target: Prolyl endopeptidase FAP (Homo sapiens) (UniProt Q12884); assay: Inhibition of FAP (unknown origin) at 1 uM TR-FRET assay relative to control
[4] = organism: Mus musculus; conditions: C57BL/6J, dose 10-30 mg/kg, time hrs <=6
[5] = organism: Mus musculus; conditions: dose 20-50 mg/kg, time hrs <=9
[6] = system: Mus musculus; assay: Antidiabetic activity in ob/ob mouse assessed as reduction in plasma glucose level treated single oral dose of compound and recombinant human FGF21 intraperitoneally 60 mins prior to glucose challenge by OGTT; type: functional, organism-based; conditions: dose 20-50 mg/kg
[7] = target: T2, Prolyl endopeptidase (Homo sapiens, UniProt P48147)
T2 sequence (P48147 whole entry): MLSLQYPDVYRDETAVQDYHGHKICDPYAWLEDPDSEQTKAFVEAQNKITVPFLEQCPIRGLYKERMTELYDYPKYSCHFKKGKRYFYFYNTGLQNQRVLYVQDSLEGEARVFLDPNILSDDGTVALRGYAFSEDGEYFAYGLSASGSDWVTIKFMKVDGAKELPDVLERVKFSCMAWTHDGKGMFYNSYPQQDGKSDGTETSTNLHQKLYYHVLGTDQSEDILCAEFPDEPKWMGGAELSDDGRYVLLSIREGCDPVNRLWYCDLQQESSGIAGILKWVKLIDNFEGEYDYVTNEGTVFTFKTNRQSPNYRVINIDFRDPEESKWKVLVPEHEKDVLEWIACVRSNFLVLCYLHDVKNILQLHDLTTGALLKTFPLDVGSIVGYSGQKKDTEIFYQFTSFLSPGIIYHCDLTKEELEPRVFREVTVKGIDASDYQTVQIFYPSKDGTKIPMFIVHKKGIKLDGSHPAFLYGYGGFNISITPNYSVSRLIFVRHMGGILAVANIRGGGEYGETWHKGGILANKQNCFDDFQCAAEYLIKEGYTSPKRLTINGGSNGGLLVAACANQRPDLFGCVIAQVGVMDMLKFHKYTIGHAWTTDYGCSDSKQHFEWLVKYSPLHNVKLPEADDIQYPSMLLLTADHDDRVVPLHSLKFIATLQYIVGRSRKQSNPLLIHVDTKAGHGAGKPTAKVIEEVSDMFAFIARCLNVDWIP
Description: Inhibition of PREP (unknown origin) using AMC substrate by fluorometric assay

[8] = target: Dipeptidyl peptidase 2 (Homo sapiens, UniProt Q9UHL4); assay: Inhibition of DPP2 (unknown origin) using AMC substrate by fluorometric assay

| SMILES | IC50 [1] | IC50 [2] | inhibition [3] | inhibition [4] | inhibition [5] | Activity [6] | IC50 [7] | IC50 [8] |
| --- | --- | --- | --- | --- | --- | --- | --- | --- |
| N#C[C@@H]1CC(F)(F)CN1C(=O)CNC(=O)c1csc(Cc2ccccc2I)n1 | 78 nM | > 100000 nM | 90.6% | – | – | – | – | – |
| N#Cc1ccc(OCc2nc(C(=O)NCC(=O)N3CC(F)(F)C[C@H]3C#N)cs2)cc1 | 7 nM | > 100000 nM | – | – | – | – | – | – |
| N#C[C@@H]1CC(F)(F)CN1C(=O)CNC(=O)c1csc(CS(=O)(=O)c2ccc(Cl)c(Cl)c2)n1 | 19 nM | > 100000 nM | – | – | – | – | – | – |
| N#C[C@@H]1CC(F)(F)CN1C(=O)CNC(=O)c1csc(Cc2ccc(Cl)cc2Cl)n1 | 1 nM | > 100000 nM | 97.2% | – | – | – | – | – |
| N#C[C@@H]1CC(F)(F)CN1C(=O)CNC(=O)c1csc(Cc2ccc(Cl)c(Cl)c2)n1 | 2 nM | > 100000 nM | 99% | Dose-dependent effect | Active | Dose-dependent effect | – | – |
| COc1ccc(Cc2nc(C(=O)NCC(=O)N3CC(F)(F)C[C@H]3C#N)cs2)cc1 | 26 nM | > 100000 nM | 98% | – | – | – | – | – |
| N#C[C@@H]1CC(F)(F)CN1C(=O)CNC(=O)c1csc(Cc2ccc(Br)cc2)n1 | 16 nM | > 100000 nM | 100% | – | – | – | – | – |
| C[S+]([O-])c1ccc(Cc2nc(C(=O)NCC(=O)N3CC(F)(F)C[C@H]3C#N)cs2)cc1 (stereo partly specified) | 390 nM | 4120 nM | 95% | – | – | – | 1200 nM | – |
| N#Cc1ccc(SCc2nc(C(=O)NCC(=O)N3CC(F)(F)C[C@H]3C#N)cs2)cc1 | 24 nM | 44600 nM | – | – | – | – | 138 nM | – |
| Cn1cc(C(=O)NCC(=O)N2CC(F)(F)C[C@H]2C#N)cc1-c1ccc(Cl)cc1 | 104 nM | – | 85.3% | – | – | – | – | – |
| N#C[C@@H]1CC(F)(F)CN1C(=O)CNC(=O)c1csc(Cc2ccc(-n3cccn3)cc2)n1 | 23 nM | > 100000 nM | 98.8% | – | – | – | – | – |
| Cc1ccc(S(=O)(=O)Cc2nc(C(=O)NCC(=O)N3CC(F)(F)C[C@H]3C#N)cs2)cc1 | 20 nM | > 100000 nM | – | – | – | – | – | – |
| N#Cc1ccc(-c2ccc(Cc3nc(C(=O)NCC(=O)N4CC(F)(F)C[C@H]4C#N)cs3)cc2)cc1 | 12 nM | > 100000 nM | 98.7% | – | – | – | – | – |
| N#C[C@@H]1CC(F)(F)CN1C(=O)CNC(=O)c1csc(Cc2ccccc2Br)n1 | 50 nM | 200 nM | 93.7% | – | – | – | – | – |
| N#C[C@@H]1CC(F)(F)CN1C(=O)CNC(=O)c1csc(-c2ccc(F)cc2)n1 | 87 nM | – | 90.5% | – | – | – | 1600 nM | – |
| N#C[C@@H]1CC(F)(F)CN1C(=O)CNC(=O)c1c[nH]c(-c2ccc(Cl)cc2)c1 | 550 nM | – | 57.8% | – | – | – | 3620 nM | – |
| N#C[C@@H]1CC(F)(F)CN1C(=O)CNC(=O)c1csc(-c2ccc(C(F)(F)F)cc2)n1 | 77 nM | > 100000 nM | 99% | – | – | – | 1380 nM | – |
| N#Cc1ccc(Cc2nc(C(=O)NCC(=O)N3CC(F)(F)C[C@H]3C#N)cs2)cc1 | – | > 100000 nM | 99.3% | – | – | – | 3200 nM | – |
| N#Cc1ccc(S(=O)(=O)Cc2nc(C(=O)NCC(=O)N3CC(F)(F)C[C@H]3C#N)cs2)cc1 | 9 nM | 76800 nM | – | – | – | – | – | – |
| N#C[C@@H]1CC(F)(F)CN1C(=O)CNC(=O)c1csc(Cc2ccc(F)cc2Cl)n1 | 60 nM | > 100000 nM | 95.9% | – | – | – | – | – |
| N#C[C@@H]1CC(F)(F)CN1C(=O)CNC(=O)c1csc(Cc2cccc(Br)c2)n1 | 35 nM | 52000 nM | 97.5% | – | – | – | – | – |
| N#C[C@@H]1CC(F)(F)CN1C(=O)CNC(=O)c1csc(COc2ccc(Cl)c(Cl)c2)n1 | 35 nM | > 100000 nM | – | – | – | – | – | – |
| CS(=O)(=O)c1ccc(Cc2nc(C(=O)NCC(=O)N3CC(F)(F)C[C@H]3C#N)cs2)cc1 | 20 nM | 10100 nM | 98% | – | – | – | – | – |

| SMILES | IC50 [1] | IC50 [2] | inhibition [3] | inhibition [4] | inhibition [5] | Activity [6] | IC50 [7] | IC50 [8] |
| --- | --- | --- | --- | --- | --- | --- | --- | --- |
| N#C[C@@H]1CC(F)(F)CN1C(=O)CNC(=O)c1csc(CSc2ccc(C(F)(F)F)cc2)n1 | 11 nM | > 100000 nM | – | – | – | – | – | – |
| N#C[C@@H]1CC(F)(F)CN1C(=O)CNC(=O)c1csc(CS(=O)(=O)c2ccc(C(F)(F)F)cc2)n1 | 5 nM | > 100000 nM | – | – | – | – | – | – |
| N#C[C@@H]1CC(F)(F)CN1C(=O)CNC(=O)c1cnc(-c2ccc(Cl)cc2)cn1 | 795 nM | – | 64% | – | – | – | – | – |
| N#C[C@@H]1CC(F)(F)CN1C(=O)CNC(=O)c1csc(Cc2cc(Cl)ccc2Cl)n1 | 55 nM | > 100000 nM | 94.5% | – | – | – | – | – |
| N#C[C@@H]1CC(F)(F)CN1C(=O)CNC(=O)c1coc(-c2ccc(Cl)cc2)n1 | 93 nM | – | 88.7% | – | – | – | 4000 nM | – |
| N#C[C@@H]1CC(F)(F)CN1C(=O)CNC(=O)c1csc(Cc2ccc(Cl)cc2)n1 | 21 nM | > 100000 nM | 98.6% | – | – | – | – | – |
| Cc1ccc(SCc2nc(C(=O)NCC(=O)N3CC(F)(F)C[C@H]3C#N)cs2)cc1 | 5 nM | > 100000 nM | – | – | – | – | – | – |
| COc1ccc(-c2nc(C(=O)NCC(=O)N3CC(F)(F)C[C@H]3C#N)cs2)cc1 | 214 nM | – | 76.5% | – | – | – | 1180 nM | – |
| N#C[C@@H]1CC(F)(F)CN1C(=O)CNC(=O)c1csc(-c2ccc(-c3ccccc3)cc2)n1 | 414 nM | – | 84.8% | – | – | – | 10000 nM | – |
| N#C[C@@H]1CC(F)(F)CN1C(=O)CNC(=O)c1csc(CSc2ccc(Cl)c(Cl)c2)n1 | 119 nM | > 100000 nM | – | – | – | – | – | – |
| N#C[C@@H]1CC(F)(F)CN1C(=O)CNC(=O)c1csc(Cc2ccc(OC(F)(F)F)cc2)n1 | 22 nM | > 100000 nM | 86.3% | – | – | – | – | – |
| N#C[C@@H]1CC(F)(F)CN1C(=O)CNC(=O)c1csc(-c2ccc(Cl)cc2C(F)(F)F)n1 | 60 nM | > 100000 nM | 94.6% | – | – | – | – | – |
| CSc1ccc(Cc2nc(C(=O)NCC(=O)N3CC(F)(F)C[C@H]3C#N)cs2)cc1 | 25 nM | > 100000 nM | 99% | – | – | – | – | – |
| N#C[C@@H]1CC(F)(F)CN1C(=O)CNC(=O)c1csc(Cc2ccc(F)c(F)c2)n1 | 47 nM | > 100000 nM | 95.4% | – | – | – | – | – |
| N#C[C@@H]1CC(F)(F)CN1C(=O)CNC(=O)c1cccc(-c2ccc(Cl)cc2)n1 | 100 nM | – | 80.6% | – | – | – | – | – |
| C[C@@H](NC(=O)c1ccncc1)C(=O)N1CCC[C@H]1B(O)O | – | > 100000 nM | – | – | – | – | – | > 100000 nM |
| N#C[C@@H]1CC(F)(F)CN1C(=O)CNC(=O)c1csc(-c2ccc(Cl)cc2)n1 | 148 nM | – | 86.7% | – | – | – | – | – |
| N#C[C@@H]1CC(F)(F)CN1C(=O)CNC(=O)c1csc(-c2ccc3occc3c2)n1 | 446 nM | – | 83.4% | – | – | – | 10000 nM | – |
| Cc1ccc(Cc2nc(C(=O)NCC(=O)N3CC(F)(F)C[C@H]3C#N)cs2)cc1 | 37 nM | 68800 nM | 97.8% | – | – | – | – | – |
| N#C[C@@H]1CC(F)(F)CN1C(=O)CNC(=O)c1csc(Cc2ccc(-n3cncn3)cc2)n1 | 28 nM | 18700 nM | 98.3% | – | – | – | – | – |
| N#C[C@@H]1CC(F)(F)CN1C(=O)CNC(=O)c1csc(Cc2ccc(-c3ccc(Cl)cc3)cc2)n1 | 145 nM | > 100000 nM | 93.8% | – | – | – | – | – |
| N#C[C@@H]1CC(F)(F)CN1C(=O)CNC(=O)c1csc(Cc2ccccc2-c2ccc3ccccc3c2)n1 | 4 nM | > 100000 nM | 99.3% | – | – | – | – | – |
